Experimental data published in ChEMBL document CHEMBL1201862, “PubChem BioAssay data set” (2004).
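Compound exposure: 48 hours, 5 concentrations, 96-well plates. GI50 is the concentration that inhibits growth by half.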 Active and inactive are the calls of the source. Cut-off read from the data, not from the text of the source: active = GI50 up to about 1.1 µM and inactive = higher.

Tests used:
Assay in all cases: NCI anticancer screen, dose series, 48 h
HCT-116 = test system: HCT-116
SNB-75 = test system: SNB-75
NCI/ADR-RES = test system: NCI/ADR-RES
NCI-H460 = test system: NCI-H460
Hs-578T = test system: Hs-578T
Malme-3M = test system: Malme-3M
SF-539 = test system: SF-539
HCT-15 = test system: HCT-15
HL-60 = test system: HL-60
MDA-MB-231 = test system: MDA-MB-231
EKVX = test system: EKVX
NCI-H522 = test system: NCI-H522
SF-295 = test system: SF-295
OVCAR-8 = test system: OVCAR-8
UACC-62 = test system: UACC-62
K562 = test system: K562
NCI-H226 = test system: NCI-H226
NCI-H23 = test system: NCI-H23
CCRF-CEM = test system: CCRF-CEM
HCC 2998 = test system: HCC 2998

| Compound | GI50 (HCT-116) | GI50 (SNB-75) | GI50 (NCI/ADR-RES) | GI50 (NCI-H460) | GI50 (Hs-578T) | GI50 (Malme-3M) | GI50 (SF-539) | GI50 (HCT-15) [µM] | GI50 (HL-60) | GI50 (MDA-MB-231) | GI50 (EKVX) | GI50 (NCI-H522) | GI50 (SF-295) | GI50 (OVCAR-8) | GI50 (UACC-62) | GI50 (K562) | GI50 (NCI-H226) | GI50 (NCI-H23) | GI50 (CCRF-CEM) | GI50 (HCC 2998) |
| --- | --- | --- | --- | --- | --- | --- | --- | --- | --- | --- | --- | --- | --- | --- | --- | --- | --- | --- | --- | --- |
| O=C1C=CC(=NNc2ccccc2)C=CC1=O | 13.3 µM (inactive) | 16.3 µM (inactive) | 11.6 µM (inactive) | 11.3 µM (inactive) | 11 µM (inactive) | 13.4 µM (inactive) | 16 µM (inactive) | 5.83 | 14 µM (inactive) | 14.9 µM (inactive) | 25.9 µM (inactive) | 13.1 µM (inactive) | 6.85 µM (inactive) | 20.4 µM (inactive) | 12.8 µM (inactive) | 7.64 µM (inactive) | 11.7 µM (inactive) | 14 µM (inactive) | – | – |
| CN(N=O)c1ccc(/C=C/c2ccnc3ccccc23)cc1 | 34 µM (inactive) | 25.1 µM (inactive) | 83.4 µM (inactive) | 34.2 µM (inactive) | > 100 µM (inactive) | 86.3 µM (inactive) | 88.5 µM (inactive) | 54.2 | 92.3 µM (inactive) | 88.7 µM (inactive) | 26.4 µM (inactive) | 46.6 µM (inactive) | 41.4 µM (inactive) | 58.1 µM (inactive) | 50.7 µM (inactive) | 78.9 µM (inactive) | 47.8 µM (inactive) | > 100 µM (inactive) | 47.3 µM (inactive) | – |
| CCOP(=O)(/C=C\n1ccc(=O)[nH]c1=O)OCC | > 100 µM (inactive) | > 100 µM (inactive) | > 100 µM (inactive) | > 10 µM (inactive) | – | – | > 100 µM (inactive) | > 100 | > 100 µM (inactive) | > 100 µM (inactive) | > 100 µM (inactive) | > 100 µM (inactive) | > 100 µM (inactive) | > 100 µM (inactive) | > 100 µM (inactive) | > 100 µM (inactive) | > 100 µM (inactive) | > 100 µM (inactive) | > 100 µM (inactive) | – |
| CC12CCC(/C(=N/c3cc(C(F)(F)F)cc(C(F)(F)F)c3)C1=O)C2(C)C (configuration not stated) | 27.7 µM (inactive) | – | 44.3 µM (inactive) | 33.4 µM (inactive) | – | 33.4 µM (inactive) | 22.9 µM (inactive) | 29.1 | 1.04 µM (active) | 36.9 µM (inactive) | 78.7 µM (inactive) | – | 41.9 µM (inactive) | 81.5 µM (inactive) | 31.3 µM (inactive) | 29.6 µM (inactive) | 86.7 µM (inactive) | 25.7 µM (inactive) | 0.453 µM (active) | 26.3 µM (inactive) |
| COc1ccc(-c2cc(O)c3nc4ccccc4n3c2)cc1 | > 100 µM (inactive) | > 100 µM (inactive) | > 100 µM (inactive) | > 100 µM (inactive) | 85.7 µM (inactive) | > 100 µM (inactive) | > 100 µM (inactive) | > 100 | > 100 µM (inactive) | > 100 µM (inactive) | > 100 µM (inactive) | > 100 µM (inactive) | > 100 µM (inactive) | > 100 µM (inactive) | > 100 µM (inactive) | > 100 µM (inactive) | > 100 µM (inactive) | > 100 µM (inactive) | > 100 µM (inactive) | – |
| O=C1N/C(=N/N=C/c2cccs2)N/C1=C\c1ccco1 | 35.5 µM (inactive) | 84.7 µM (inactive) | 66.4 µM (inactive) | 23.2 µM (inactive) | 29.3 µM (inactive) | 38.6 µM (inactive) | 28.9 µM (inactive) | > 100 | 31.4 µM (inactive) | > 100 µM (inactive) | > 100 µM (inactive) | 7.98 µM (inactive) | 94.2 µM (inactive) | 37 µM (inactive) | 60.7 µM (inactive) | 37.4 µM (inactive) | 21.3 µM (inactive) | 45.3 µM (inactive) | 12 µM (inactive) | – |
| c1ccc2cc3c(NC4=NCCO4)cccc3cc2c1 | 50 µM (inactive) | 24.8 µM (inactive) | 75.2 µM (inactive) | 29 µM (inactive) | 41.8 µM (inactive) | 36.1 µM (inactive) | 97.5 µM (inactive) | > 100 | 25.9 µM (inactive) | 25.2 µM (inactive) | 76.2 µM (inactive) | > 100 µM (inactive) | > 100 µM (inactive) | 48.5 µM (inactive) | > 100 µM (inactive) | 37.2 µM (inactive) | 52.2 µM (inactive) | 32.9 µM (inactive) | 27.7 µM (inactive) | – |
| O=C(OCC1OC(c2nn[nH]n2)C(OC(=O)c2ccccc2)C1OC(=O)c1ccccc1)c1ccccc1 (configuration not stated) | > 100 µM (inactive) | 57 µM (inactive) | > 100 µM (inactive) | 71 µM (inactive) | – | > 100 µM (inactive) | > 100 µM (inactive) | > 100 | > 100 µM (inactive) | – | 66.1 µM (inactive) | – | > 100 µM (inactive) | > 100 µM (inactive) | 53 µM (inactive) | 46.2 µM (inactive) | 79.8 µM (inactive) | > 100 µM (inactive) | 96.6 µM (inactive) | > 100 µM (inactive) |
| Clc1nc(Cl)c(Cl)c(-c2ccccc2)n1 | – | 2.26 µM (inactive) | 5.62 µM (inactive) | 9.46 µM (inactive) | 2.73 µM (inactive) | 5.61 µM (inactive) | 11.8 µM (inactive) | 11.4 | > 100 µM (inactive) | – | 16.6 µM (inactive) | 1.67 µM (inactive) | 3.93 µM (inactive) | 10.4 µM (inactive) | – | 1.44 µM (inactive) | 24.3 µM (inactive) | 15.8 µM (inactive) | 0.74 µM (active) | 22.2 µM (inactive) |
| Nc1ncc2c(n1)-c1ccccc1OC2N1CCOCC1 (configuration not stated) | > 100 µM (inactive) | 59.7 µM (inactive) | > 100 µM (inactive) | > 100 µM (inactive) | > 100 µM (inactive) | > 100 µM (inactive) | > 100 µM (inactive) | > 100 | 44.5 µM (inactive) | > 100 µM (inactive) | 85.9 µM (inactive) | 45.2 µM (inactive) | > 100 µM (inactive) | > 100 µM (inactive) | > 100 µM (inactive) | > 100 µM (inactive) | > 100 µM (inactive) | > 100 µM (inactive) | > 100 µM (inactive) | – |
| O=C1CCC2(O)C3Cc4ccc(Oc5nnnn5-c5ccccc5)c5c4C2(CCN3CC2CC2)C1O5 (configuration not stated) | 43.6 µM (inactive) | > 100 µM (inactive) | 86.7 µM (inactive) | 56.5 µM (inactive) | 28.9 µM (inactive) | 17.8 µM (inactive) | – | 35.5 | – | 58.6 µM (inactive) | > 100 µM (inactive) | 23.3 µM (inactive) | 70 µM (inactive) | 63.4 µM (inactive) | 28.7 µM (inactive) | 22.2 µM (inactive) | – | > 100 µM (inactive) | 18.6 µM (inactive) | – |
| CC(O)(CNS(=O)(=O)c1ccccc1)c1ccccc1 (configuration not stated) | > 100 µM (inactive) | > 100 µM (inactive) | > 100 µM (inactive) | > 100 µM (inactive) | > 100 µM (inactive) | > 100 µM (inactive) | – | > 100 | > 100 µM (inactive) | > 100 µM (inactive) | > 100 µM (inactive) | > 100 µM (inactive) | > 100 µM (inactive) | > 100 µM (inactive) | > 100 µM (inactive) | > 100 µM (inactive) | > 100 µM (inactive) | > 100 µM (inactive) | > 100 µM (inactive) | – |
| CN(C)CC1CCC(CN(C)C)C(=O)C1=O (configuration not stated) | 2.4 µM (inactive) | 14.7 µM (inactive) | – | 18.8 µM (inactive) | – | 1.92 µM (inactive) | 7.18 µM (inactive) | 3 | 2.36 µM (inactive) | 6.22 µM (inactive) | 17.3 µM (inactive) | 0.946 µM (active) | 16.6 µM (inactive) | 3.01 µM (inactive) | 16.1 µM (inactive) | 2.27 µM (inactive) | 4.41 µM (inactive) | 14.6 µM (inactive) | 1.73 µM (inactive) | 20.9 µM (inactive) |
| CCCN(CCCc1ccccc1)CCc1ccc2[nH]c(=S)[nH]c2c1 | 13.1 µM (inactive) | 21.1 µM (inactive) | 20.5 µM (inactive) | 13.2 µM (inactive) | 39.8 µM (inactive) | 12.9 µM (inactive) | – | 25.8 | – | 14.7 µM (inactive) | 58.9 µM (inactive) | – | 12.4 µM (inactive) | 28.8 µM (inactive) | 31 µM (inactive) | 2.02 µM (inactive) | 66.5 µM (inactive) | 40.6 µM (inactive) | – | 13.3 µM (inactive) |
| NC(=O)CC(N)c1nnn[nH]1 (configuration not stated) | > 100 µM (inactive) | > 100 µM (inactive) | > 100 µM (inactive) | > 100 µM (inactive) | > 100 µM (inactive) | > 100 µM (inactive) | > 100 µM (inactive) | > 100 | > 100 µM (inactive) | > 100 µM (inactive) | > 100 µM (inactive) | > 100 µM (inactive) | > 100 µM (inactive) | > 100 µM (inactive) | > 100 µM (inactive) | > 100 µM (inactive) | > 100 µM (inactive) | > 100 µM (inactive) | > 100 µM (inactive) | – |
| CC1=NN(C(=O)c2ccccc2O)C(=O)/C1=C/c1cccc([N+](=O)[O-])c1 | 0.463 µM (active) | 0.449 µM (active) | 6.81 µM (inactive) | 0.658 µM (active) | – | 21.1 µM (inactive) | 0.377 µM (active) | 4.05 | 1.22 µM (inactive) | 41.8 µM (inactive) | 3.99 µM (inactive) | 3.99 µM (inactive) | 0.507 µM (active) | 0.889 µM (active) | 0.408 µM (active) | 0.364 µM (active) | 0.274 µM (active) | 0.753 µM (active) | 2.77 µM (inactive) | 36.1 µM (inactive) |
